According to US11679108B2, “Aromatic heterocyclic compound, and pharmaceutical composition and use thereof” (GUANGZHOU HENOVCOM BIOSCIENCE CO., LTD., priority 2018, dated 2023):

Key:
ATX in human plasma = target: T1, ATX in human plasma (Homo sapiens, UniProt Q13822); test: Analysis in vitro: detection of LPA in human plasma for screening activity (LPA 18:2 by LC/MS/MS); format: biochemical; conditions: incubated 2 hours at 37° C., LPA 18:2 detected by LC/MS/MS
T1 construct: blank plasma was derived from at least 6 individual people; from tissue; host or cells: human plasma (pooled from at least 6 individuals)
Excerpt: Analysis In Vitro: Detection of LPA in Human Plasma for Screening Activity
Principle: LPC in plasma being used as a substrate, the produced LPA 18:2 (LPA 17:0 as an internal standard) is detected by LC/MS/MS quantitative analysis. At different concentrations of the compounds to be tested, the percentage of residual activity is obtained by the ratio of the production of LPA18:2 to that in the absence of the compounds to be tested, thereby calculating IC50 values.
Experiment procedures: blank plasma was derived from at least 6 individual people. The compounds to be tested were diluted from stock solution in 3-fold dilution gradient, to produce 8 concentrations of working solution (with zero) in series. 10 μL of the melting blank plasma samples were taken and iced methanol solution containing internal standard (LPA 17:0) was added to it, so that the mixture directedly performed protein precipitation, which served as a system control sample. 2 μL of the working solution in different concentration was taken and 198 μL of blank human plasma was added, which was incubated with a concentration of 0 to 10 μM. The samples were placed at an incubater containing 5% CO2 at 37° C., and incubated for 2 hours. When the incubation was completed, 10 μL of plasma sample was taken and appropriate volume of iced methanol solution containing internal standard (LPA 17:0) was added into it, so that the mixture directedly performed protein precipitation. The precipitation was centrifuged to take supernatant. LPA 18:2 was detected by LC/MS/MS and IC50 values were analyzed and calculated by software, seeing Table 2.

ATX = ATX (Homo sapiens, UniProt Q13822); test: Analysis in vitro: LPC was used as substrate for screening enzyme activity (Amplex Red fluorescence); format: biochemical; conditions: inhibitory activity against ATX, with LPC as substrate
Excerpt: Analysis In Vitro: LPC was Used as Substrate for Screening Enzyme Activity
Principle: Lysophosphatidylcholine (LPC) as substrate is hydrolyzed by using the activity of lysoPLD enzyme, to produce lysophosphatidic acid (LPA) and choline, which is oxidized to produce H2O2 under the action of choline oxidase. In presence of horse radish peroxidase (HPR), Amplex Red reagent is reacted with H2O2 in a quantitative chemistry ratio of 1 to 1, to produce strong fluorescence products, which are detected by a fluorescent quantitative test.
Experimental procedures: the compounds to be tested were dissolved in DMSO, to prepare 10 mM of stock solution, which was diluted in a gradient concentration of 3 times with DMSO from 10 mM, to generate 10 concentration gradients. The reaction buffer solution was used for preparing a mixed solution 1 of 2 ng/μl ATX, 2 U/ml HRP and 0.2 U/ml choline oxidase in a final concentration. 20 μl of the above mixed solution 1 was added to each hole of an experiment board, […]. The compounds diluted with DMSO were transferred into an experiment board with Echo550. The reaction buffer solution was used for preparing a mixed solution 2 of […] LPC and 400 μM Amplex Red in a final concentration. 20 μl of the above mixed solution 2 was added to each hole of the experiment board. After addition, the experiment board was shook for 30 seconds on a shaker, and incubated for 30 minutes. Envision was used to read the fluorescence signals with an exciting light at 530 nm and emitted light at 590 nm. Inhibition ratio of the compounds to enzyme reaction was calculated according to the ratio of fluorescence, and IC50 of the compounds was analyzed and calculated by software, seeing Table 1.

Structure (SMILES): CCc1nc2sc(N3CCCC(N(C)CC(=O)N4CC(O)C4)C3)nn2c1N(C)c1nc(-c2ccc(F)cc2)c(C#N)s1 (stereo not drawn) [Example 14]
- IC50 (ATX in human plasma): 0.01 to 100 nM
- IC50 (ATX): 0.01 to 100 nM

Structure (SMILES): CCc1nc2sc(N3CC[C@H](N(C)CC(=O)N4CC(C(=O)O)C4)C3)nn2c1N(C)c1nc(-c2ccc(F)cc2)c(C#N)s1 [Example 45, (5)-1-{2-[(1-(5-((5-cyano-4-(4-fluorophenyl)thiazol-2-yl)(methyl)amino)-6-ethylimidazo[2,1-b][1,3,4]thiadiazol-2-yl}pyrrolidin-3-yl)(methyl)amino]acetyl}azetidine-3-carboxylic acid]
- IC50 (ATX in human plasma): 100 to 500 nM
- IC50 (ATX): 0.01 to 100 nM

Structure (SMILES): CCc1nc2sc(N3CC[C@H](N(C)C(=O)N4CC(O)C4)C3)nn2c1N(C)c1nc(-c2ccc(F)cc2)c(C#N)s1 [Example 37, (S)—N-{1-[5-((5-cyano-4-(4-fluorophenyl)thiazol-2-yl)(methyl)amino)-6-ethylimidazo[2,1-b][1,3,4]thiadiazol-2-yl]pyrrolidin-3-yl}-3-hydroxy-N-methylazetidine-1-carboxamide]
- IC50 (ATX in human plasma): 100 to 500 nM
- IC50 (ATX): 0.01 to 100 nM

Structure (SMILES): CCc1nc2sc(N3CCC4(CC3)CN(CC(=O)N3CC(O)C3)C4)nn2c1N(C)c1nc(-c2ccc(F)cc2)c(C#N)s1 [Example 4]
- IC50 (ATX in human plasma): 0.01 to 100 nM
- IC50 (ATX): 100 to 500 nM

Structure (SMILES): CCc1nc2sc(N3CCC(N(C)C(N)=O)C3)nn2c1N(C)c1nc(-c2ccc(F)cc2)c(C#N)s1 (stereo not drawn) [Example 12, 1-{1-[5-((5-cyano-4-(4-fluorophenyl)thiazol-2-yl)(methyl)amino)-6-ethylimidazo[2,1-b][1,3,4]thiadiazol-2-yl]pyrrolidin-3-yl}-1-methylurea]
- IC50 (ATX in human plasma): 0.01 to 100 nM
- IC50 (ATX): 0.01 to 100 nM

Structure (SMILES): CCc1nc2sc(C3CCN(CC(=O)N4CC(O)C4)CC3)nn2c1N(C)c1nc(-c2ccc(F)cc2)c(C#N)s1 [Example 17, 2-{[6-ethyl-2-(1-(2-(3-hydroxyazetidin-1-yl)-2oxoethyl)piperidin-4-yl)imidazo[2,1-b][1,3,4]thiadiazol-5-yl](methyl)amino}-4-(4-fluorophenyl)thiazole-5-carbonitrile]
- IC50 (ATX in human plasma): 0.01 to 100 nM
- IC50 (ATX): 100 to 500 nM

Structure (SMILES): CCc1nc2sc(N3CC[C@@H](N(C)C(=O)N4CC(O)C4)C3)nn2c1N(C)c1nc(-c2ccc(F)cc2)c(C#N)s1 [Example 36, (R)—N-{1-[5-((5-cyano-4-(4-fluorophenyl)thiazol-2-yl)(methyl)amino)-6-ethylimidazo[2,1-b][1,3,4]thiadiazol-2-yl]pyrrolidin-3-yl}-3-hydroxy-N-methylazetidine-1-carboxamide]
- IC50 (ATX in human plasma): 100 to 500 nM
- IC50 (ATX): 0.01 to 100 nM

Structure (SMILES): CCc1nc2sc(N3CCN(CC(=O)N4CC(O)C4)CC3)nn2c1N(C)c1nc(-c2ccc(F)cc2)c(C#N)s1 [Example 2, 2-{[6-ethyl-2-(4-(2-(3-hydroxyazetidin-1-yl)-2-oxoethyl)piperazin-1-yl)imidazo[2,1-b][1,3,4]thiadiazol-5-yl](methyl)amino}-4-(4-fluorophenyl)thiazole-5-carbonitrile]
- IC50 (ATX in human plasma): 100 to 500 nM
- IC50 (ATX): 100 to 500 nM

Structure (SMILES): CCc1nc2sc(N3CC[C@@H](N(C)CC(=O)N4CC(O)C4)C3)nn2c1N(C)c1nc(-c2ccc(F)cc2)c(C#N)s1 [Example 21, (R)-2-{[6-ethyl-2-(3-((2-(3-hydroxyazetidin-1-yl)-2-oxoethyl)(methyl)amino)pyrrolidin-1-yl)imidazo[2,1-b][1,3,4]thiadiazol-5-yl](methyl)amino}-4-(4-fluorophenyl)thiazole-5-carbonitrile]
- IC50 (ATX in human plasma): 0.01 to 100 nM
- IC50 (ATX): 0.01 to 100 nM

Structure (SMILES): CCc1nc2sc(N3CCC(N(C)S(C)(=O)=O)C3)nn2c1N(C)c1nc(-c2ccc(F)cc2)c(C#N)s1 (stereo not drawn) [Example 10, N-{1-[5-((5-cyano-4-(4-fluorophenyl)thiazol-2-yl)(methyl)amino)-6-ethylimidazo[2,1-b][1,3,4]thiadiazol-2-yl}pyrrolidin-3-yl]-N-methylmethanesulfonamide]
- IC50 (ATX in human plasma): 0.01 to 100 nM
- IC50 (ATX): 0.01 to 100 nM

Structure (SMILES): CCc1nc2sc(N3CC[C@H](N(C)CC(=O)N4CC(O)C4)C3)nn2c1N(C)c1nc(-c2ccc(F)cc2)c(C#N)s1 [Example 22, (S)-2-{[6-ethyl-2-(3-((2-(3-hydroxyazetidin-1-yl)-2oxoethyl)(methyl)amino)pyrrolidin-1-yl)imidazo[2,1-b][1,3,4]thiadiazol-5-yl](methyl)amino}-4-(4-fluorophenyl)thiazole-5-carbonitrile]
- IC50 (ATX in human plasma): 0.01 to 100 nM
- IC50 (ATX): 0.01 to 100 nM

Structure (SMILES): CCc1nc2sc(N3CC[C@H](N(C)C(N)=O)C3)nn2c1N(C)c1nc(-c2ccc(F)cc2)c(C#N)s1 [Example 20, (S)-1-{1-[5-((5-cyano-4-(4-fluorophenyl)thiazol-2-yl)(methyl)amino)-6-ethylimidazo[2,1-b][1,3,4]thiadiazol-2-yl]pyrrolidin-3-yl}-1-methylurea]
- IC50 (ATX in human plasma): 0.01 to 100 nM
- IC50 (ATX): 0.01 to 100 nM

Structure (SMILES): CCc1nc2sc(N3CC[C@H](N(C)CC(=O)N4CCOCC4)C3)nn2c1N(C)c1nc(-c2ccc(F)cc2)c(C#N)s1 [Example 41, (S)-2-{[6-ethyl-2-(3-(methyl(2-morpholino-2-oxoethyl)amino)pyrrolidin-1-yl)imidazo[2,1-b][1,3,4]thiadiazol-5-yl](methyl)amino}-4-(4-fluorophenyl)thiazole-5-carbonitrile]
- IC50 (ATX in human plasma): 100 to 500 nM
- IC50 (ATX): 0.01 to 100 nM

Structure (SMILES): CCc1nc2sc(N3CC[C@H](N(C)CC(=O)N4CC(C#N)C4)C3)nn2c1N(C)c1nc(-c2ccc(F)cc2)c(C#N)s1 [Example 47, (S)-2-{[2-(3-((2-(3-cyanoazetidin-1-yl)-2-oxoethyl)(methyl)amino)pyrrolidin-1-yl)-6-ethylimidazo[2,1-b][1,3,4]thiadiazol-5-yl](methyl)amino}-4-(4-fluorophenyl)-thiazole-5-carbonitrile]
- IC50 (ATX in human plasma): 0.01 to 100 nM
- IC50 (ATX): 0.01 to 100 nM

Structure (SMILES): CCc1nc2sc(N3C[C@@H]4C[C@H]3CN4CC(=O)N3CC(C#N)C3)nn2c1N(C)c1nc(-c2ccc(F)cc2)c(C#N)s1 [Example 59, 2-{[6-ethyl-2-((1S,4S)-5-(2-(3-cyanoazetidin-1-yl)-2-oxoethyl)-2,5-diazabicyclo[2.2.1]heptan-2-yl)imidazo[2,1-b][1,3,4]thiadiazol-5-yl](methyl)amino}-4-(4-fluorophenyl)thiazole-5-carbonitrile]
- IC50 (ATX in human plasma): 100 to 500 nM

Structure (SMILES): CCOC(=O)CN(C)C1CCN(c2nn3c(N(C)c4nc(-c5ccc(F)cc5)c(C#N)s4)c(CC)nc3s2)C1 (stereo not drawn) [Example 48]
- IC50 (ATX in human plasma): 100 to 500 nM

Structure (SMILES): CCc1nc2sc(N3CC4CC(C3)N4CC(=O)N3CC(O)C3)nn2c1N(C)c1nc(-c2ccc(F)cc2)c(C#N)s1 [Example 61, 2-{[6-ethyl-2-(6-(2-(3-hydroxyazetidin-1-yl)-2-oxoethyl)-3,6-diazabicyclo[3.1.1]heptan-3-yl)imidazo[2,1-b][1,3,4]thiadiazol-5-yl](methyl)amino}-4-(4-fluorophenyl)thiazole-5-carbonitrile]
- IC50 (ATX in human plasma): 100 to 500 nM

Structure (SMILES): CCc1nc2sc(N3CCN(CC(=O)N4CC(O)C4)C[C@H]3C)nn2c1N(C)c1nc(-c2ccc(F)cc2)c(C#N)s1 [Example 66, (R)-2-{[6-ethyl-2-(4-(2-(3-hydroxyazetidin-1-yl)-2-oxoethyl)-2-methylpiperazin-1-yl)imidazo[2,1-b][1,3,4]thiadiazol-5-yl](methyl)amino}-4-(4-fluorophenyl)thiazole-5-carbonitrile]
- IC50 (ATX in human plasma): 0.01 to 100 nM

Structure (SMILES): CCc1nc2sc(N3C[C@H](C)N(CC(=O)N4CC(O)C4)[C@@H](C)C3)nn2c1N(C)c1nc(-c2ccc(F)cc2)c(C#N)s1 (relative stereo) [Example 73, trans-2-{[6-ethyl-2-(4-(2-(3-hydroxyazetidin-1-yl)-2-oxoethyl)-3,5-dimethylpiperazin-1-yl)imidazo[2,1-b][1,3,4]thiadiazol-5-yl](methyl)amino}-4-(4-fluorophenyl)thiazole-5-carbonitrile]
- IC50 (ATX in human plasma): 100 to 500 nM
